Experimental data reported in patent publication US6335348B1, “Nitrogen-containing linear and azepinyl/ compositions and uses for vision and memory disorders” (GPI NIL Holdings, Inc., priority 1998, dated 2002).
Like-named read-outs stand apart in the source and are kept apart here. Marks after values point to notes of the source that are not given here. Each block holds one molecule with its values, some of them ahead of it.

How the values were obtained:
[1] = tested on: retinal ganglion cell axons; assay: Protection of retinal ganglion cell axons from degeneration 14 days after optic nerve transection (Table V); type: in vivo; settings: ± SEM
Excerpt: Efficacy of representative compounds from different immunophilin ligand series in protecting retinal ganglion cell axons from degeneration following optic nerve transection is set forth in Table V.

[2] = Clearance (Table V comments); type: in vitro ADME
FKBP12 = FKBP12 (Homo sapiens, UniProt P62942); assay: Ki test procedure: inhibition of peptidyl-prolyl isomerase (rotamase) activity, chymotrypsin-coupled assay; type: biochemical
Chain of FKBP12 (P62942 whole entry, species assumed): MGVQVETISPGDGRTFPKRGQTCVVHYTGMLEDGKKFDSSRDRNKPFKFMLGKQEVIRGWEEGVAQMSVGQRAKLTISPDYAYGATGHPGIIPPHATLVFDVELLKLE
Excerpt: The inhibition of the prolyl peptidyl cis-trans isomerase activity of FKBP may be measured as an indicator of this affinity. Inhibition of the peptidyl-prolyl isomerase (rotamase) activity of the compounds used in the inventive methods and pharmaceutical compositions can be evaluated by known methods described in the literature (Harding et al., Nature, 1989, 341:758-760; Holt et al. J. Am. Chem. Soc., 115:9923-9938). […] The cis-trans isomerization of an alanine-proline bond in a model substrate, N-succinyl-[…]-nitroanilide, is monitored spectrophotometrically in a chymotrypsin-coupled assay, which releases para-nitroanilide from the trans form of the substrate. The inhibition of this reaction caused by the addition of different concentrations of inhibitor is determined, and the data is analyzed as a change in first-order rate constant as a function of inhibitor concentration to yield the apparent Ki values. […] The reaction is initiated by the addition of […] of substrate (succinyl-[…]-nitroanilide, 5 mg/mL in 2.35 mM LiCl in trifluoroethanol). The absorbance at 390 nm versus time is monitored for 90 seconds using a spectrophotometer and the rate constants are determined from the absorbance versus time data files.

[3] = tested on: retinal ganglion cells and optic nerve axons; assay: Optic nerve transection, 14 or 28 day treatment, evaluated 90 days after transection; type: in vivo, Sprague Dawley rats; settings: for Proximal optic nerve myelin basic protein Density: % areal coverage of optic nerve cross section, ± SEM; for Distal optic nerve: shrinkage of cross sectional area: compared to sham control
Excerpt: All eyes and optic nerves stumps were removed.

retinal ganglion cells = assay: Example 13: optic nerve transection, 28 days treatment, sacrifice 90 days after transection; type: in vivo, Sprague Dawley rats; settings: 10 mg/kg/day s.c. for 28 days
[4] = tested on: streptozotocin-induced diabetic rat; assay: Streptozotocin-induced diabetic sensory neuropathy, hot plate and tail flick; type: in vivo, Male Wistar rats; settings: lesioned animals treated for 6 weeks at 10 mg/kg s.c.
Protocol: The procedure involved using Male Wistar rats which were given a single injection of streptozotocin (65 mg/kg i.v.). Blood glucose levels were determined weekly for the first three weeks and on the last week of the experiment. Animals were evaluated weekly for signs of sensory neuropathy using the conventional hot plate and tail flick apparatus test procedures.

[5] = apparent Ki, Table C, read-out: Ki
[6] = Table V comments, read-out: Ki rotamase

Clearance [2]: 41.8 µL/min
SMILES: CCC(C)(C)C(=O)C(=O)N1CCCC[C@H]1C(=O)OC(CCc1ccccc1)CCc1ccccc1 [E]

Ki (FKBP12; [5]): 35 µM
SMILES: COC(=O)C(=O)N1CCCCC1C(=O)OCCCC1CCCC1 (centres unmarked) [Compound 19]

Ki (FKBP12; [5]): 20 µM
SMILES: COC(=O)C(=O)N1CCCCC1C(=O)OCCCC1CCCCC1 (centres unmarked) [Compound 18]

Ki (FKBP12; [6]): > 10 µM
SMILES: CCC(C)(C)C(=O)C(=O)N1CCCC[C@H]1C(=O)O [G]
RT97 + RGC axon density 14 days after ON transection (% ON axons rescued) [1]: 34.0% ± 4.8% SEM

Clearance [2]: 4.5 µL/min
SMILES: CCC(C)(C)C(=O)C(=O)N1CCCC[C@H]1C(=O)SCCC(c1ccccc1)c1ccccc1 [Compound K]
RT97 + RGC axon density 14 days after ON transection (% ON axons rescued) [1]: 13.0% ± 4.2% SEM

Ki (FKBP12; [6]): ≥ 7.74 µM
SMILES: CCC(C)(C)C(=O)C(=O)N1CCC[C@H]1C(=O)O [L]

Continued, molecule first:

SMILES: CCC(C)(C)C(=O)C(=O)N1CCCC[C@H]1C(N)=O [H]
RT97 + RGC axon density 14 days after ON transection (% ON axons rescued) [1]: 30.3% ± 8.0% SEM

SMILES: CCC(C)(C)C(=O)C(=O)N1CCS[C@@H]1C(=O)OCCCc1cccnc1 [F]
RT97 + RGC axon density 14 days after ON transection (% ON axons rescued) [1]: 55.1% ± 5.9% SEM

SMILES: COc1ccc(CCCCOC(=O)C2CCCCN2C(=O)C(=O)c2cc(OC)c(OC)c(OC)c2)cc1 (centres unmarked) [Compound 25]
Ki (FKBP12; [5]): 0.013 µM

SMILES: O=C(OCCCCc1ccccc1)[C@@H]1CCCCN1S(=O)(=O)Cc1ccccc1 [D]
RT97 + RGC axon density 14 days after ON transection (% ON axons rescued) [1]: 58.4% ± 6.4% SEM

SMILES: CCC(C)(C)C(=O)C(=O)N1CCC[C@H]1C(=O)SCCC(c1ccccc1)c1ccccc1 [M]
RT97 + RGC axon density 14 days after ON transection (% ON axons rescued) [1]: −6.3% + 3.9% SEM

SMILES: CCC(C)(C)C(=O)C(=O)N1CCC[C@H]1C(=O)CCCCc1cccnc1 [J]
RT97 + RGC axon density 14 days after ON transection (% ON axons rescued) [1]: 15.8% ± 4.8% SEM

SMILES: O=C(SCCCc1ccccc1)[C@@H]1CCCN1C(=O)NC12CC3CC4(CC(C3)(C4)C1)C2 [Compound B]
Ki (FKBP12; [6]): 0.149 µM
RT97 + RGC axon density 14 days after ON transection (% ON axons rescued) [1]: 100.0% ± 5.2% SEM

SMILES: CCC(C)(C)C(=O)C(=O)N1CCC[C@H]1C(=O)OCCCc1cccnc1 [GPI 1046]
Proximal optic nerve myelin basic protein Density ([3]; ONT/14 days GPI 1046): did not alter the pattern of myelin degeneration
Distal optic nerve: shrinkage of cross sectional area ([3]; ONT/14 days GPI 1046): did not protect against shrinkage of the distal stump
Distal optic nerve myelin basic protein Density: myelin loss ([3]; ONT/14 days GPI 1046, cross sectional area multiplied by myelin density): slightly increase the density,of myelin
RGC Counts ([3]; ONT/28 days GPI 1046, 10 mg/kg/day sc, 90 days after transection, mean density of Fluoro-gold labeled RGC in 400 μm × 400 μm gridfields): 67.9 +
Proximal optic nerve myelin basic protein Density ([3]; ONT/28 days GPI 1046): dramatic preservation of the fascicular staining pattern
ON axon Count ([3]; ONT/28 days GPI 1046, calculated by multiplying axonal density by ON area): 22.861*
Distal optic nerve: shrinkage of cross sectional area ([3]; ONT/28 days GPI 1046): prevented cross sectional shrinkage
Distal optic nerve myelin basic protein Density: myelin preservation ([3]; ONT/28 days GPI 1046, cross sectional area multiplied by myelin density): 99% myelin % myelin preservation
preservation of axons in the proximal stump (RT97 neurofilament immunohistochemistry) (retinal ganglion cells): preserved the axons of virtually all protected neurons
latency in hot plate and tail flick [4]: improvement in latency
